Assay results as given in EP1226160B1.
Read-outs that look alike come from different tables or passages of the source.

Conditions: amide bond, DMF
[1] = PyBOP/HOBt/NMM, 16.0 h, 15 steps
[2] = PyBOP/HOBt/NMM, 16.0 h, 17 steps

Row | SMILES | ring closure, yield of all isomers [1] [%] | ring closure, yield of all isomers [2] [%] | also measured
1 | C[C@@H]1NC(=O)CNC(=O)[C@@H]2C[C@@H](O)CN2C(=O)[C@@H]2CCCN2C(=O)[C@H](Cc2ccc(O)cc2)NC(=O)[C@H](CC(N)=O)NC1=O [Cyclo(Tyr-Pro-4Hyp-Gly-Ala-Asn)] | 4.4 | – | –
2 | C[C@@H]1NC(=O)CNC(=O)[C@@H]2C[C@@H](O)CN2C(=O)[C@@H]2CCCN2C(=O)[C@H](Cc2ccc(O)cc2)NC(=O)[C@H](CC(N)=O)NC(=O)CNC1=O [Cyclo(Tyr-Pro-4Hyp-Gly-Ala-Gly-Asn)] | – | 7 | –
3 | C[C@@H]1NC(=O)CNC(=O)[C@H](CC(N)=O)NC(=O)[C@H](Cc2ccc(O)cc2)NC(=O)[C@@H]2CCCN2C(=O)[C@@H]2C[C@@H](O)CN2C(=O)CNC1=O [cyclo(-Gly-Ala-Gly-Hyp-Pro-Tyr-Asn-)] | – | 6.2 | –
4 | C[C@@H]1NC(=O)CNC(=O)[C@H](CCC(N)=O)NC(=O)[C@H](Cc2ccc(O)cc2)NC(=O)[C@@H]2CCCN2C(=O)[C@@H]2C[C@@H](O)CN2C(=O)CNC1=O [cyclo(-Gly-Ala-Gly-Hyp-Pro-Tyr-Gln-)] | – | 6.6 | –
5 | C[C@@H]1NC(=O)[C@H](CO)NC(=O)[C@H](C)NC(=O)[C@H](Cc2ccc(O)cc2)NC(=O)[C@H](CC(N)=O)NC(=O)CNC1=O [cyclo(-Tyr-Ala-Ser-Ala-Gly-Asn-)] | 4.3 | – | –
6 | NC(=O)C[C@@H]1NC(=O)CNC(=O)[C@H](Cc2ccc(O)cc2)NC(=O)[C@H](CC(N)=O)NC(=O)CNC(=O)[C@H](Cc2ccc(O)cc2)NC1=O [cyclo(-Tyr-Gly-Asn-Tyr-Gly-Asn-)] | – | – | ring closure, yield of all isomers (PyBOP, 16 steps): 14%
